Laboratory results taken from US20230107983A1, “COMPOUND ISOLATED FROM TORILIDIS FRUCTUS, AND ANTICANCER PHARMACEUTICAL COMPOSITION CONTAINING SAME AS ACTIVE INGREDIENT” (PHARMA-GENE CO., LTD., priority 2020, published 2023).

Legend:
[1] = test system: human lung cancer cells (A549); experiment: Nude mouse xenograft model of human lung cancer cells, oral administration; format: in vivo; set-up: Tumor size increase (Vt—V0): unit not given here
Procedure: (§1) Anticancer activity against lung cancer according to the oral administration of Tr-9 was confirmed through a nude mouse xenograft model of human lung cancer cells (A549). Specific pathogen-free (SPF) nude mice of the BALB/C strain were used as the animal model. Animals were bred in the animal room of Daedeok Campus of Hannam University maintained at a temperature of 23±3° C., relative humidity of 55±15%, ventilation frequency of 10-20 times/hr, lighting time of 12 hours(lights on at 8 am and off at 8 pm) and illuminance of 150 to 300 Lux.
(§2) For cancer cell transplantation, all cells were collected and counted on the last day of culture, and the concentration of human lung cancer cell line A549 was adjusted to 5×10^6 cells/ml using PBS. The adjusted cell culture solution was injected subcutaneously into the auxiliary region between the right scapula and chest wall at 0.2 ml (1×10^6 cells/mouse) per mouse.
(§3) The Tr-9 was dissolved in sterile PBS and 1 mM Tr-9 200 µℓ was orally administered per mouse once a day, and all animals were weighed immediately before the start of drug (Tr-9) administration and 10 times in total from day 2 to day 23 after cancer cell transplantation (Table 1).
(§4) In Table 1 above, data values are the mean ± standard deviation. After measuring the body weight, the animals were killed using CO2 gas, and the tumor was separated and the size was measured in 3 directions using a vernier caliper for each animal. Then, the change in tumor size was expressed as a calculated value of (length × width × height)/2 (Table 2).
Tumor size increase is (Δt)= Vt—Vo, wherein Vt is the value of measuring the tumor size by date, and Vo is the value of measuring the initial tumor size.

[2] = test system: human colorectal cancer cells (HCT116); experiment: Nude mouse xenograft model of human colorectal cancer cells, intraperitoneal administration; format: in vivo
Procedure: Anticancer activity against colorectal cancer according to the intraperitoneal administration of Tr-9 was confirmed through a nude mouse xenograft model of human colorectal cancer cells (HCT116). In Example 5, Example 4 was repeated except for using colorectal cancer cells.
as §1, with “Specific” for “Anticancer activity against lung cancer according to the oral administration of Tr-9 was confirmed through a nude mouse xenograft model of human lung cancer cells (A549). Specific”
as §2, with “colorectal” for “lung”, “HCT116” for “A549”
The Tr-9 was dissolved in sterile PBS and 1 mM Tr-9 200 µℓ was intraperitoneally administered per mouse once a day, and all animals were weighed immediately before the start of drug (Tr-9) administration and 9 times in total from day 2 to day 21 after cancer cell transplantation (Table 7).
as §4, with “7” for “1”, “8).” for “2).”
Tumor size increase is (Δt)═ Vt—Vo, wherein Vt is the value of measuring the tumor size by date, and Vo is the value of measuring the initial tumor size.

[3] = Change in mouse weight, A549 xenograft, oral administration; format: in vivo, nude mouse; set-up: Change in mouse weight: unit not given here; conditions: once a day
Procedure: as §3, §4

[4] = Change in mouse weight, A549 xenograft, intraperitoneal administration; format: in vivo, nude mouse; set-up: Change in mouse weight: unit not given here; conditions: once a day
Procedure: The Tr-9 was dissolved in sterile PBS and 1 mM Tr-9 200 µℓ was intraperitoneally administered per mouse once a day, and all animals were weighed immediately before the start of drug (Tr-9) administration and 10 times in total from day 2 to day 23 after cancer cell transplantation (Table 4).
as §4, with “4” for “1”, “4).” for “2).”

Compound: CC(=O)OC(C)(C)C1CC2=C(C)C(=O)CC2C(C)CC1OC(=O)CC(C)C (stereo not drawn) [Tr-9]
- Tumor size increase (Vt—V0) ([1]; oral once a day, Day 0): 0.0±0.0
- Tumor size increase (Vt—V0) ([1]; oral once a day, Day 2): 5.4±1.4
- Inhibition rate (tumor size increase) ([1]; oral once a day, Day 2, vs control): 55.4%
- Tumor size increase (Vt—V0) ([1]; oral once a day, Day 5): 13.9±6.1
- Inhibition rate (tumor size increase) ([1]; oral once a day, Day 5, vs control): 31.5%
- Tumor size increase (Vt—V0) ([1]; oral once a day, Day 7): 24.0±14.5
- Inhibition rate (tumor size increase) ([1]; oral once a day, Day 7, vs control): 25.9%
- Tumor size increase (Vt—V0) ([1]; oral once a day, Day 9): 36.5±12.5
- Inhibition rate (tumor size increase) ([1]; oral once a day, Day 9, vs control): 31.3%
- Tumor size increase (Vt—V0) ([1]; oral once a day, Day 12): 67.8±25.4
- Inhibition rate (tumor size increase) ([1]; oral once a day, Day 12, vs control): 33.5%
- Tumor size increase (Vt—V0) ([1]; oral once a day, Day 14): 119.9±37.5
- Inhibition rate (tumor size increase) ([1]; oral once a day, Day 14, vs control): 34.1%
- Tumor size increase (Vt—V0) ([1]; oral once a day, Day 16): 183.4±85.6
- Inhibition rate (tumor size increase) ([1]; oral once a day, Day 16, vs control): 36.8%
- Tumor size increase (Vt—V0) ([1]; oral once a day, Day 19): 322.8±71.3
- Inhibition rate (tumor size increase) ([1]; oral once a day, Day 19, vs control): 39.0%
- Tumor size increase (Vt—V0) ([1]; oral once a day, Day 21): 448.0±131.2
- Inhibition rate (tumor size increase) ([1]; oral once a day, Day 21, vs control): 39.2%
- Tumor size increase (Vt—V0) ([1]; oral once a day, Day 23): 575.0±159.7
- Tumor weight at Day 23 ([1]; oral once a day, Day 23): 0.676 ± 0.185 g
- Inhibition rate (tumor size increase) ([1]; oral once a day, Day 23, vs control): 41.4%
- tumor size compared to the control group ([1]; oral, after day 19): statistically significantly smaller
- tumor size further reduced compared to the group intraperitoneally administered with the torilin ([2]; intraperitoneal): about 10%
- Tumor size increase (Vt−V0) ([2]; intraperitoneal once a day, Day 0, table title: Change in tumor size): 0.0±0.0
- Tumor size increase (Vt−V0) ([2]; intraperitoneal once a day, Day 2, table title: Change in tumor size): 53.1±17.9
- Inhibition rate (tumor size increase) ([2]; intraperitoneal once a day, Day 2, vs control): 19.8%
- Tumor size increase (Vt−V0) ([2]; intraperitoneal once a day, Day 5, table title: Change in tumor size): 139.4±40.3
- Inhibition rate (tumor size increase) ([2]; intraperitoneal once a day, Day 5, vs control): 22.9%
- Tumor size increase (Vt−V0) ([2]; intraperitoneal once a day, Day 7, table title: Change in tumor size): 312.6±71.9
- Inhibition rate (tumor size increase) ([2]; intraperitoneal once a day, Day 7, vs control): 30.1%
- Tumor size increase (Vt−V0) ([2]; intraperitoneal once a day, Day 9, table title: Change in tumor size): 453.9±112.5
- Inhibition rate (tumor size increase) ([2]; intraperitoneal once a day, Day 9, vs control): 35.1%
- Tumor size increase (Vt−V0) ([2]; intraperitoneal once a day, Day 11, table title: Change in tumor size): 648.7±112.0
- Inhibition rate (tumor size increase) ([2]; intraperitoneal once a day, Day 11, vs control): 37.0%
- Tumor size increase (Vt−V0) ([2]; intraperitoneal once a day, Day 14, table title: Change in tumor size): 849.8±110.2
- Inhibition rate (tumor size increase) ([2]; intraperitoneal once a day, Day 14, vs control): 38.3%
- Tumor size increase (Vt−V0) ([2]; intraperitoneal once a day, Day 16, table title: Change in tumor size): 1075.9±155.6
- Inhibition rate (tumor size increase) ([2]; intraperitoneal once a day, Day 16, vs control): 40.1%
- Tumor size increase (Vt−V0) ([2]; intraperitoneal once a day, Day 18, table title: Change in tumor size): 1326.9±216.2
- Inhibition rate (tumor size increase) ([2]; intraperitoneal once a day, Day 18, vs control): 35.2%
- Tumor weight at Day 21 ([2]; intraperitoneal once a day, Day 21): 2.48 ± 0.308 g
- Tumor size increase (Vt−V0) ([2]; intraperitoneal once a day, Day 21, table title: Change in tumor size): 1690.3±144.2
- Inhibition rate (tumor size increase) ([2]; intraperitoneal once a day, Day 21, vs control): 35.9%
- tumor size compared to the control group ([2]; intraperitoneal, after day 14): statistically significantly smaller
- Change in mouse weight ([3]; 0 Day after drug treatment): 100.0 ±0.0
- Change in mouse weight ([3]; 2 Days after drug treatment): 95.6 ±1.7
- Change in mouse weight ([3]; 5 Days after drug treatment): 96.9 ±1.8
- Change in mouse weight ([3]; 7 Days after drug treatment): 99.5 ±1.5
- Change in mouse weight ([3]; 9 Days after drug treatment): 102.3 ±2.8
- Change in mouse weight ([3]; 12 Days after drug treatment): 98.6 ±1.5
- Change in mouse weight ([3]; 14 Days after drug treatment): 100.7 ±3.6
- Change in mouse weight ([3]; 16 Days after drug treatment): 102.5 ±3.8
- Change in mouse weight ([3]; 19 Days after drug treatment): 103.6 ±5.5
- Change in mouse weight ([3]; 21 Days after drug treatment): 102.9 ±5.7
- Change in mouse weight ([3]; 23 Days after drug treatment): 104.7 ±5.6
- difference in body weight according to the administration of the drugs ([3]; day 2 to day 23): almost no difference in body weight
- Change in mouse weight ([4]; 0 Day after drug treatment): 100.0 ±0.0
- Change in mouse weight ([4]; 2 Days after drug treatment): 98.2 ±1.0
- Change in mouse weight ([4]; 5 Days after drug treatment): 94.7 ±2.5
- Change in mouse weight ([4]; 7 Days after drug treatment): 94.1 ±2.2
- Change in mouse weight ([4]; 9 Days after drug treatment): 99.7 ±2.7
- Change in mouse weight ([4]; 12 Days after drug treatment): 96.7 ±3.1
- Change in mouse weight ([4]; 14 Days after drug treatment): 97.3 ±2.8
- Change in mouse weight ([4]; 16 Days after drug treatment): 100.2 ±1.8
- Change in mouse weight ([4]; 19 Days after drug treatment): 98.3 ±2.9
- Change in mouse weight ([4]; 21 Days after drug treatment): 99.4 ±1.6
- Change in mouse weight ([4]; 23 Days after drug treatment): 100.2 ±2.6
- difference in body weight according to the administration of the drugs ([4]; day 2 to day 23): almost no difference in body weight
